According to ChEMBL document CHEMBL3585268, “Treatment of Cancer with NAMPT Inhibitors” (2015):

Key:
Type in all cases: functional
Mus musculus [1] = assay: In vivo inhibition of NAMPT in human A2780 cells xenografted in Harlan nude mouse assessed as NAD+ level per mg of tissue at 20 mg/kg, po bid measured 7 hrs post second dose by LC-MS analysis (reference value: 55.03 to 56.3 pmol)
Mus musculus [2] = assay: In vivo inhibition of NAMPT in human A2780 cells xenografted in Harlan nude mouse assessed as NAD+ level per mg of tissue at 5 mg/kg, po bid measured 7 hrs post second dose by LC-MS analysis (reference value: 55.03 to 56.3 pmol)
Mus musculus [3] = assay: In vivo inhibition of NAMPT in human NCI-H1155 cells xenografted in Harlan nude mouse assessed as NAD+ level per mg of tissue at 20 mg/kg, po bid measured 7 hrs post second dose by LC-MS analysis (reference value: 20.08 to 57.97 pmol)
Mus musculus [4] = assay: In vivo inhibition of NAMPT in human NCI-H1155 cells xenografted in Harlan nude mouse assessed as NAD+ level per mg of tissue at 5 mg/kg, po bid measured 7 hrs post second dose by LC-MS analysis (reference value: 20.08 to 57.97 pmol)
Mus musculus [5] = assay: In vivo inhibition of NAMPT in human NCI-H1155 cells xenografted in Harlan nude mouse assessed as NAD+ level per mg of tissue at 10 mg/kg, po bid measured 7 hrs post second dose by LC-MS analysis (reference value: 20.08 to 57.97 pmol)
Mus musculus [6] = assay: In vivo inhibition of NAMPT in human A2780 cells xenografted in Harlan nude mouse assessed as NAD+ level per mg of tissue at 10 mg/kg, po bid measured 7 hrs post second dose by LC-MS analysis (reference value: 55.03 to 56.3 pmol)
Mus musculus [7] = assay: In vivo inhibition of NAMPT in human A2780 cells xenografted in Harlan nude mouse assessed as NAD+ level per mg of tissue at 16 mg/kg, po bid measured 7 hrs post second dose by LC-MS analysis (reference value: 55.03 to 56.3 pmol)
Mus musculus [8] = assay: In vivo inhibition of NAMPT in human NCI-H1155 cells xenografted in Harlan nude mouse assessed as NAD+ level per mg of tissue at 32 mg/kg, po bid measured 7 hrs post second dose by LC-MS analysis (reference value: 20.08 to 57.97 pmol)
Mus musculus [9] = assay: In vivo inhibition of NAMPT in human NCI-H1155 cells xenografted in Harlan nude mouse assessed as NAD+ level per mg of tissue at 8 mg/kg, po bid measured 7 hrs post second dose by LC-MS analysis (reference value: 20.08 to 57.97 pmol)
Mus musculus [10] = assay: In vivo inhibition of NAMPT in human A2780 cells xenografted in Harlan nude mouse assessed as NAD+ level per mg of tissue at 32 mg/kg, po bid measured 7 hrs post second dose by LC-MS analysis (reference value: 55.03 to 56.3 pmol)
Mus musculus [11] = assay: In vivo inhibition of NAMPT in human NCI-H1155 cells xenografted in Harlan nude mouse assessed as NAD+ level per mg of tissue at 16 mg/kg, po bid measured 7 hrs post second dose by LC-MS analysis (reference value: 20.08 to 57.97 pmol)
Mus musculus [12] = assay: In vivo inhibition of NAMPT in human A2780 cells xenografted in Harlan nude mouse assessed as NAD+ level per mg of tissue at 8 mg/kg, po bid measured 7 hrs post second dose by LC-MS analysis (reference value: 55.03 to 56.3 pmol)

Row | SMILES | Activity (Mus musculus [1]) | Activity (Mus musculus [2]) | Activity (Mus musculus [3]) | Activity (Mus musculus [4]) | Activity (Mus musculus [5]) | Activity (Mus musculus [6]) | Activity (Mus musculus [7]) | Activity (Mus musculus [8]) | Activity (Mus musculus [9]) | Activity (Mus musculus [10]) | Activity (Mus musculus [11]) | Activity (Mus musculus [12])
1 | CC(C)(O)CS(=O)(=O)Nc1ccc2c(c1)CCN(C(=O)COc1cccnc1)C2 | 3.29 pmol | 5.04 pmol | 1.82 pmol | 7.48 pmol | 3.63 pmol | 2.55 pmol | – | – | – | – | – | –
2 | COCCS(=O)(=O)Nc1ccc2c(c1)CCN(C(=O)COc1cccnc1)C2 | – | – | – | – | – | – | 6.52 pmol | 0.84 pmol | 5.19 pmol | 6.38 pmol | 1.98 pmol | 3.97 pmol
